These results are taken from ChEMBL document CHEMBL3397039, “Anti-inflammatory activity of phenolic compounds from the whole plant of Scutellaria indica” (Bioorg Med Chem Lett, 2015).

A word on the IC50: it is the midpoint of a concentration-inhibition curve.

Data set [1] deals with RAW264.7. The experiment in a line: Toxicity against mouse RAW264.7 cells at 30 uM after 24 hrs in presence of LPS by MTT assay. Conditions: raw264.7, 24 h; call rule not given here. In kind it is cell-based. On the technique in general: Tetrazolium assays rely on reduction of a dye to a coloured formazan, in cell work by metabolically active cells.
The test system of data set [2] is RAW264.7. Nature of the data set: Anti-inflammatory activity in mouse RAW264.7 cells assessed as inhibition of LPS-induced nitric oxide production by Griess reaction based method. It counts as functional, cell-based. Background: Griess reagent forms a coloured azo dye with nitrite.
Data set [3] relates to RAW264.7. Nature of the data set: Toxicity against mouse RAW264.7 cells at 30 uM after 24 hrs in absence of LPS by MTT assay. Conditions: raw264.7, 24 h. In kind it is cell-based.
For data set [4], the system named is RAW264.7. The experiment in a line: Inhibition of LPS-induced iNOS protein expression in mouse RAW264.7 cells by Western blotting method. In kind it is functional, cell-based. In general terms: In western blotting, separated proteins are transferred to a membrane and probed.
Data set [5] deals with RAW264.7. Nature of the data set: Effect on alpha-tubulin protein expression in mouse RAW264.7 cells up to 30 uM by Western blotting method. It counts as ADME, cell-based.

Turning to `O=C(O)[C@H]1O[C@@H](Oc2c(O)cc(O)c3c(=O)cc(-c4ccccc4)oc23)[C@H](O)[C@@H](O)[C@@H]1O`, the Activity result with RAW264.7 [1] and with RAW264.7 [3] was “Non-toxic” each time. Besides, the IC50 in the data set on RAW264.7 [2] is above 30 µM.
For the molecule `COc1ccc([C@@H]2CC(=O)c3c(O)c(OC)c(OC)c(OC)c3O2)cc1`, the Activity result in the data set on RAW264.7 [1] and in the data set on RAW264.7 [3] was “Non-toxic” throughout. The concentration for half-maximal inhibition (IC50) with RAW264.7 [2] came to 27.8 µM.
On to `COC(=O)[C@H]1O[C@@H](Oc2c(O)cc(O)c3c(=O)cc(-c4ccccc4)oc23)[C@H](O)[C@@H](O)[C@@H]1O`, for which the Activity entry in the data set with RAW264.7 [1] and in the data set on RAW264.7 [3] was “Non-toxic” throughout. For the same molecule, in the data set on RAW264.7 [2], the IC50 is above 30 µM.
Take `O=c1cc(-c2ccc(O)c(O)c2)oc2cc(O)cc(O)c12` [LUTEOLIN]: the Activity result in the data set on RAW264.7 [1], in the data set on RAW264.7 [3] and with RAW264.7 [5] was “Non-toxic” in each case. Further, the IC50 in the data set with RAW264.7 [2] is 7.2 µM. In addition, in the data set with RAW264.7 [4], the inhibition result is “Dose-dependent effect”.
Consider `COc1c(O)cc(O)c2c(=O)cc(-c3ccc(O)cc3)oc12` [4'-HYDROXYWOGONIN], for which the Activity result with RAW264.7 [1] and in the data set with RAW264.7 [3] was “Non-toxic” in each case. For the same molecule, the IC50 in the data set on RAW264.7 [2] was found to be 12.5 µM.
Take `COC(=O)[C@H]1O[C@@H](Oc2ccccc2[C@@H]2CC(=O)c3c(O)cc(OC)c(OC)c3O2)[C@H](O)[C@@H](O)[C@@H]1O`: the Activity result with RAW264.7 [1] and in the data set on RAW264.7 [3] was “Non-toxic” in each case. The IC50 with RAW264.7 [2] is above 30 µM.
For the molecule `COc1ccccc1[C@@H]1CC(=O)c2c(O)cc(O[C@@H]3O[C@H](CO)[C@@H](O)[C@H](O)[C@H]3O)c(OC)c2O1`, the Activity entry with RAW264.7 [1] and in the data set on RAW264.7 [3] was “Non-toxic” throughout. For the same molecule, the half-inhibitory concentration (IC50) in the data set with RAW264.7 [2] is above 30 µM.
As for `COc1cc(O)c2c(c1OC)O[C@H](c1cc(O)ccc1O[C@@H]1O[C@H](CO)[C@@H](O)[C@H](OC(=O)c3ccc(O)cc3)[C@H]1O)CC2=O`, the Activity result in the data set on RAW264.7 [1] and in the data set on RAW264.7 [3] was “Non-toxic” each time. The concentration for half-maximal inhibition (IC50) in the data set with RAW264.7 [2] is above 30 µM.
As for `COc1cc(O)c2c(c1OC)O[C@H](c1cc(O)ccc1O[C@@H]1O[C@H](COC(C)=O)[C@@H](O)[C@H](O)[C@H]1O)CC2=O`, the Activity result in the data set on RAW264.7 [1] and in the data set with RAW264.7 [3] was “Non-toxic” throughout. The IC50 with RAW264.7 [2] is above 30 µM.
As for `COc1cc(O)c2c(c1OC)O[C@H](c1c(O)cccc1O[C@@H]1O[C@H](CO)[C@@H](O)[C@H](O)[C@H]1O)CC2=O`, the Activity result in the data set with RAW264.7 [1] and in the data set on RAW264.7 [3] was “Non-toxic” throughout. Besides, the half-inhibitory concentration (IC50) in the data set with RAW264.7 [2] is above 30 µM.
As for `COc1c(O[C@@H]2O[C@H](C(=O)O)[C@@H](O)[C@H](O)[C@H]2O)cc(O)c2c1O[C@H](c1ccccc1O)CC2=O`, the Activity result in the data set on RAW264.7 [1] and with RAW264.7 [3] was “Non-toxic” in each case. In addition, in the data set on RAW264.7 [2], the half-maximal inhibitory concentration (IC50) was above 30 µM.
Regarding `COC(=O)[C@H]1O[C@@H](Oc2cc(O)c3c(c2OC)O[C@H](c2cccc(OC)c2)CC3=O)[C@H](O)[C@@H](O)[C@@H]1O`, the Activity entry with RAW264.7 [1] and in the data set with RAW264.7 [3] was “Non-toxic” in each case. The IC50 in the data set with RAW264.7 [2] was above 30 µM.
